Laboratory results reported in patent US12453709B2, “Compositions and methods for treating autism” (priority 2013, dated 2025).
Marks after values point to notes of the source that are not given here.

Test system: male patients diagnosed with autism
Experiment: Study HT 02-121: adverse events
Assay type: in vivo, human
Method: The purpose of this clinical study (referred to herein as “Study HT 02-121”; i.e., Example 6) was to determine whether L1-79 was a well-tolerated and clinically useful agent for the treatment of ASD, and to assess the PK and pharmacodynamics (PD) of four weeks of TID dosing with L1-79. […] The first cohort of 20 patients was comprised of three groups of patients: The first group of five patients received open-label L1-79 100 mg TID and underwent PK and EKG assessments. […] The PK and safety data from the open-label L1-79 100 mg TID group was submitted to FDA for review and acceptance before the second cohort was enrolled. The second cohort was procedurally identical to the first. The second cohort of 20 patients was comprised of the same three groups of patients but a dose of 200 mg TID was used instead of 100 mg TID. The key inclusion criteria were as follows: […] Safety was the primary endpoint of the study. The following safety endpoints were assessed: ECGs, physical exams, laboratory evaluations (hematology, chemistry and urinalysis), vital signs, including orthostatic blood pressure, adverse events (AEs) and concomitant medications. The incidence of AEs by primary system organ class and preferred term is presented in Table 7, and a listing of the AEs reported during the study is presented in Table 8. All AEs were mild to moderate in intensity and self-limited.

[1] = patient 01-011, OL 200 mg TID, treatment emergent Y, resolved
[2] = patient 02-001, OL 100 mg TID, treatment emergent Y, resolved
[3] = patient 02-018, DB 200 mg TID, treatment emergent Y, resolved

Q: Which “Incidence of AEs: Nasopharyngitis” value (OL 100 mg TID, N = 5) does the source give for `CC(N)(Cc1ccc(O)cc1)C(=O)O` (racemic) [L1-79, α-methyl-DL-tyrosine] here?
A: 0[0] n(%)

Q: What about the “Incidence of AEs: Nervous system disorders” value (OL 100 mg TID, N = 5) of the same molecule?
A: 0[0] n(%)

Q: What about the “Incidence of AEs: Otitis externa” value (OL 100 mg TID, N = 5) of the same molecule?
A: 0[0] n(%)

Q: What about the “Incidence of AEs: Psychiatric disorders” value (OL 100 mg TID, N = 5) of the same molecule?
A: 2(40.0) n(%)

Q: And the “Incidence of AEs: Pyrexia” value (OL 100 mg TID, N = 5)?
A: 0[0] n(%)

Q: What about the “Incidence of AEs: Renal and urinary disorders” value (OL 100 mg TID, N = 5) of the same molecule?
A: 0[0] n(%)

Q: And the “Incidence of AEs: Respiratory, thoracic & mediastinal disorders” value (OL 100 mg TID, N = 5)?
A: 0[0] n(%)

Q: What about the “Incidence of AEs: Seasonal allergy” value (OL 100 mg TID, N = 5) of the same molecule?
A: 0[0] n(%)

Q: What about the “Incidence of AEs: Syncope” value (OL 100 mg TID, N = 5) of the same molecule?
A: 0[0] n(%)

Q: And the “Incidence of AEs: Urinary incontinence” value (OL 100 mg TID, N = 5)?
A: 0[0] n(%)

Q: What about the “Number of AE events: All primary SOC” value (OL 100 mg TID, N = 5) of the same molecule?
A: 6 [e]

Q: And the “Number of AE events: Anxiety” value (OL 100 mg TID, N = 5)?
A: 1 [e]

Q: What about the “Number of AE events: Confusional state” value (OL 100 mg TID, N = 5) of the same molecule?
A: 1 [e]

Q: What about the “Number of AE events: International self-injury” value (OL 100 mg TID, N = 5) of the same molecule?
A: 2 [e]

Q: And the “Number of AE events: Irritability” value (OL 100 mg TID, N = 5)?
A: 2 [e]

Q: What about the “Number of AE events: Psychiatric disorders” value (OL 100 mg TID, N = 5) of the same molecule?
A: 6 [e]

Q: What about the “Incidence of AEs: Agitation” value (OL 200 mg TID, N = 6) of the same molecule?
A: 0[0] n(%)

Q: And the “Incidence of AEs: All primary SOC” value (OL 200 mg TID, N = 6)?
A: 2(40.0) n(%)

Q: What about the “Incidence of AEs: Amylase †” value (OL 200 mg TID, N = 6) of the same molecule?
A: 0[0] n(%)

Q: And the “Incidence of AEs: Anxiety” value (OL 200 mg TID, N = 6)?
A: 0[0] n(%)

Q: And the “Incidence of AEs: Blood TSH †” value (OL 200 mg TID, N = 6)?
A: 0[0] n(%)

Q: What about the “Incidence of AEs: Confusional state” value (OL 200 mg TID, N = 6) of the same molecule?
A: 0[0] n(%)

Q: What about the “Incidence of AEs: Cough” value (OL 200 mg TID, N = 6) of the same molecule?
A: 1(20.0) n(%)

Q: What about the “Incidence of AEs: Crystal urine present” value (OL 200 mg TID, N = 6) of the same molecule?
A: 0[0] n(%)

Q: What about the “Incidence of AEs: Diarrhoea” value (OL 200 mg TID, N = 6) of the same molecule?
A: 0[0] n(%)

Q: What about the “Incidence of AEs: Ear infection” value (OL 200 mg TID, N = 6) of the same molecule?
A: 0[0] n(%)

Q: What about the “Incidence of AEs: Fatigue” value (OL 200 mg TID, N = 6) of the same molecule?
A: 1(20.0) n(%)

Q: What about the “Incidence of AEs: GI disorders” value (OL 200 mg TID, N = 6) of the same molecule?
A: 0[0] n(%)

Q: What about the “Incidence of AEs: General disorders & administration site conditions” value (OL 200 mg TID, N = 6) of the same molecule?
A: 2(40.0) n(%)

Q: What about the “Incidence of AEs: Generalized tonic-clonic seizure” value (OL 200 mg TID, N = 6) of the same molecule?
A: 0[0] n(%)

Q: What about the “Incidence of AEs: Immune system disorders” value (OL 200 mg TID, N = 6) of the same molecule?
A: 1(20.0) n(%)

Q: What about the “Incidence of AEs: Infections and infestations” value (OL 200 mg TID, N = 6) of the same molecule?
A: 0[0] n(%)

Q: What about the “Incidence of AEs: International self-injury” value (OL 200 mg TID, N = 6) of the same molecule?
A: 0[0] n(%)

Q: What about the “Incidence of AEs: Investigations” value (OL 200 mg TID, N = 6) of the same molecule?
A: 0[0] n(%)

Q: And the “Incidence of AEs: Irritability” value (OL 200 mg TID, N = 6)?
A: 0[0] n(%)

Q: And the “Incidence of AEs: Nasopharyngitis” value (OL 200 mg TID, N = 6)?
A: 0[0] n(%)

Q: What about the “Incidence of AEs: Nervous system disorders” value (OL 200 mg TID, N = 6) of the same molecule?
A: 0[0] n(%)

Q: And the “Incidence of AEs: Otitis externa” value (OL 200 mg TID, N = 6)?
A: 0[0] n(%)

Q: What about the “Incidence of AEs: Psychiatric disorders” value (OL 200 mg TID, N = 6) of the same molecule?
A: 0[0] n(%)

Q: And the “Incidence of AEs: Pyrexia” value (OL 200 mg TID, N = 6)?
A: 1(20.0) n(%)

Q: And the “Incidence of AEs: Renal and urinary disorders” value (OL 200 mg TID, N = 6)?
A: 0[0] n(%)

Q: And the “Incidence of AEs: Respiratory, thoracic & mediastinal disorders” value (OL 200 mg TID, N = 6)?
A: 1(20.0) n(%)

Q: And the “Incidence of AEs: Seasonal allergy” value (OL 200 mg TID, N = 6)?
A: 1(20.0) n(%)

Q: And the “Incidence of AEs: Syncope” value (OL 200 mg TID, N = 6)?
A: 0[0] n(%)

Q: And the “Incidence of AEs: Urinary incontinence” value (OL 200 mg TID, N = 6)?
A: 0[0] n(%)

Q: And the “Number of AE events: All primary SOC” value (OL 200 mg TID, N = 6)?
A: 4 [e]

Q: What about the “Number of AE events: Cough” value (OL 200 mg TID, N = 6) of the same molecule?
A: 1 [e]

Q: And the “Number of AE events: Fatigue” value (OL 200 mg TID, N = 6)?
A: 1 [e]

Q: What about the “Number of AE events: General disorders & administration site conditions” value (OL 200 mg TID, N = 6) of the same molecule?
A: 2 [e]

Q: What about the “Number of AE events: Immune system disorders” value (OL 200 mg TID, N = 6) of the same molecule?
A: 1 [e]

Q: And the “Number of AE events: Pyrexia” value (OL 200 mg TID, N = 6)?
A: 1 [e]

Q: What about the “Number of AE events: Respiratory, thoracic & mediastinal disorders” value (OL 200 mg TID, N = 6) of the same molecule?
A: 1 [e]

Q: What about the “Number of AE events: Seasonal allergy” value (OL 200 mg TID, N = 6) of the same molecule?
A: 1 [e]

Q: What about the “AE Relationship: cough” value (patient 01-011, OL 200 mg TID) of the same molecule?
A: not related

Q: What about the “AE Relationship: pyrexia (fever)” value (patient 01-011, OL 200 mg TID) of the same molecule?
A: not related

Q: And the “AE Severity: cough” value [1]?
A: moderate

Q: What about the “AE Severity: pyrexia (fever)” value [1] of the same molecule?
A: moderate

Q: And the “AE Relationship: crystal urine present (urine cystine crystal present)” value (patient 01-014, DB 200 mg TID)?
A: not related

Q: What about the “AE Severity: crystal urine present (urine cystine crystal present)” value (patient 01-014, DB 200 mg TID, reported at 4-week follow-up visit, resolved) of the same molecule?
A: mild

Q: And the “AE Relationship: diarrhoea (diarrhea)” value (patient 01-016, DB 200 mg TID)?
A: not related

Q: And the “AE Severity: diarrhoea (diarrhea)” value (patient 01-016, DB 200 mg TID, treatment emergent Y, resolved)?
A: moderate

Q: What about the “AE Relationship: fatigue (tiredness)” value (patient 01-016, OL 200 mg TID) of the same molecule?
A: possibly related

Q: And the “AE Relationship: seasonal allergy” value (patient 01-016, OL 200 mg TID)?
A: not related

Q: And the “AE Severity: seasonal allergy” value (patient 01-016, OL 200 mg TID, treatment emergent Y, not resolved)?
A: moderate

Q: And the “AE Severity: fatigue (tiredness)” value (patient 01-016, OL 200 mg TID, treatment emergent Y, resolved)?
A: mild

Q: And the “AE Relationship: crystal urine present (urine cystine crystal present)” value (patient 01-018, DB 200 mg TID)?
A: not related

Q: And the “AE Severity: crystal urine present (urine cystine crystal present)” value (patient 01-018, DB 200 mg TID, reported at 4-week follow-up visit, resolved)?
A: mild

Q: What about the “AE Relationship: anxiety (anxious)” value (patient 02-001, OL 100 mg TID) of the same molecule?
A: possibly related

Q: What about the “AE Relationship: confusional state (mental confusion)” value (patient 02-001, OL 100 mg TID) of the same molecule?
A: possibly related

Q: What about the “AE Relationship: intentional self-injury (self injurious behavior)” value (patient 02-001, OL 100 mg TID) of the same molecule?
A: possibly related

Q: And the “AE Relationship: irritability” value (patient 02-001, OL 100 mg TID)?
A: possibly related

Q: What about the “AE Severity: anxiety (anxious)” value [2] of the same molecule?
A: mild

Q: And the “AE Severity: confusional state (mental confusion)” value [2]?
A: mild

Q: What about the “AE Severity: intentional self-injury (self injurious behavior)” value [2] of the same molecule?
A: mild

Q: And the “AE Severity: irritability” value [2]?
A: mild

Q: And the “AE Relationship: intentional self-injury (violent episodes of self injurious behavior)” value (patient 02-002, OL 100 mg TID)?
A: probably related

Q: What about the “AE Relationship: irritability” value (patient 02-002, OL 100 mg TID) of the same molecule?
A: probably related

Q: What about the “AE Severity: irritability” value (patient 02-002, OL 100 mg TID, treatment emergent Y, outcome unknown) of the same molecule?
A: mild

Q: What about the “AE Severity: intentional self-injury (violent episodes of self injurious behavior)” value (patient 02-002, OL 100 mg TID, treatment emergent Y, resolving) of the same molecule?
A: mild

Q: And the “AE Relationship: synoope (synoope)” value (patient 02-009, DB 100 mg TID)?
A: not related

Q: And the “AE Severity: synoope (synoope)” value (patient 02-009, DB 100 mg TID, treatment emergent Y, resolved)?
A: mild

Q: And the “AE Relationship: anxiety (anxious mood)” value (patient 02-018, DB 200 mg TID)?
A: possibly related

Q: And the “AE Relationship: blood thyroid stimulating hormone increased (elevated TSH)” value (patient 02-018, DB 200 mg TID)?
A: possibly related

Q: What about the “AE Relationship: diarrhoea (diarrhea)” value (patient 02-018, DB 200 mg TID) of the same molecule?
A: possibly related

Q: What about the “AE Relationship: otitis externa” value (patient 02-018, DB 200 mg TID) of the same molecule?
A: not related

Q: And the “AE Severity: blood thyroid stimulating hormone increased (elevated TSH)” value (patient 02-018, DB 200 mg TID, reported at 4-week follow-up visit, resolved)?
A: moderate

Q: What about the “AE Severity: anxiety (anxious mood)” value [3] of the same molecule?
A: mild

Q: And the “AE Severity: diarrhoea (diarrhea)” value [3]?
A: moderate

Q: And the “AE Severity: otitis externa” value [3]?
A: mild

Q: What about the “AE Relationship: generalized tonic-clonic seizer (grand mal seizure)” value (patient 02-023, DB 200 mg TID) of the same molecule?
A: possibly related

Q: What about the “AE Severity: generalized tonic-clonic seizer (grand mal seizure)” value (patient 02-023, DB 200 mg TID, treatment emergent Y, resolved, discontinued Y) of the same molecule?
A: moderate

Q: What about the “AE Relationship: diarrhoea (diarrhea)” value (patient 02-024, DB 200 mg TID) of the same molecule?
A: not related

Q: And the “AE Relationship: ear infection” value (patient 02-024, DB 200 mg TID, AE reported pre-treatment)?
A: not related

Q: And the “AE Severity: ear infection” value (patient 02-024, DB 200 mg TID, AE reported pre-treatment, resolving)?
A: mild

Q: What about the “AE Severity: diarrhoea (diarrhea)” value (patient 02-024, DB 200 mg TID, treatment emergent Y, resolved) of the same molecule?
A: mild
